From article PMC10746543, “Design principles for cyclin K molecular glue degraders” (Nature Chemical Biology, 2023)

Key:
CDK12 = molecular target: CDK12; set-up: method as in PMID 30065029; settings: read-out: CDK12 binding affinity; cited from earlier work
CDK12–cyclin K and DDB1 = molecular target: T1, CDK12–cyclin K and DDB1 (Homo sapiens, UniProt Q16531+Q9NYV4, K965R); assay: TR-FRET Kd determination, quadratic fit, 50 nM or 10 nM CDK12–cyclin K; assay type: binding; settings: for Kd / TR-FRET Kd*: n = 1
T1 construct: His6–CDK12 (a.a. 713–1,052); full-length or beta-propeller B domain deletion (ΔBPB: a.a. 396–705 deleted) constructs of His6–DDB1ΔBPB, StrepII–Avi–DDB1, or His6–Spy–DDB1; made in house; host or cells: Trichoplusia ni High Five insect cells (baculovirus)
Text: Equation (2) is a quadratic binding equation used for Kd determination,where Top and Bottom refer to the curve plateaus. […]

[1] = 10 nM CDK12-cyclin K + 100 nM DDB1
[2] = 10 nM CDK12-cyclin K, compound 0.468 nM
[3] = 10 nM CDK12-cyclin K, compound 2.16 nM
[4] = 10 nM CDK12-cyclin K, compound 3.6 nM
[5] = 10 nM CDK12-cyclin K, compound 7.92 nM
[6] = 10 nM CDK12-cyclin K, compound 15.84 nM
[7] = 10 nM CDK12-cyclin K, compound 30.96 nM
[8] = 10 nM CDK12-cyclin K, compound 62.6399 nM
[9] = 10 nM CDK12-cyclin K, compound 125.279 nM
[10] = 10 nM CDK12-cyclin K, compound 244.8 nM
[11] = 10 nM CDK12-cyclin K, compound 993.6 nM
[12] = 10 nM CDK12-cyclin K, compound 2001.6 nM
[13] = 50 nM CDK12-cyclin K + 100 nM DDB1
[14] = 50 nM CDK12-cyclin K, compound 0.468 nM
[15] = 50 nM CDK12-cyclin K, compound 2.16 nM
[16] = 50 nM CDK12-cyclin K, compound 3.6 nM
[17] = 50 nM CDK12-cyclin K, compound 7.92 nM
[18] = 50 nM CDK12-cyclin K, compound 15.84 nM
[19] = 50 nM CDK12-cyclin K, compound 30.96 nM
[20] = 50 nM CDK12-cyclin K, compound 62.6399 nM
[21] = 50 nM CDK12-cyclin K, compound 125.279 nM
[22] = 50 nM CDK12-cyclin K, compound 244.8 nM
[23] = 50 nM CDK12-cyclin K, compound 993.6 nM
[24] = 50 nM CDK12-cyclin K, compound 2001.6 nM

T1 sequence (Q9NYV4 713-1052 K965R): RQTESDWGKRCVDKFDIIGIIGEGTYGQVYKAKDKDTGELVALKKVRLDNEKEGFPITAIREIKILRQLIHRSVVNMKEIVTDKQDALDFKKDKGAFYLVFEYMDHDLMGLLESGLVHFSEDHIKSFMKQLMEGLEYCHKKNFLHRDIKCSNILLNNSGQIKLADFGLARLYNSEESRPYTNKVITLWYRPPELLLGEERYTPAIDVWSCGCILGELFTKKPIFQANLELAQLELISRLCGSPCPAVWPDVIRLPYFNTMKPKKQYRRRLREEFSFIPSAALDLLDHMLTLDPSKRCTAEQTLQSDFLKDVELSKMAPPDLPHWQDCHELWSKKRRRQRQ
T1 sequence (O75909 1-267 partner): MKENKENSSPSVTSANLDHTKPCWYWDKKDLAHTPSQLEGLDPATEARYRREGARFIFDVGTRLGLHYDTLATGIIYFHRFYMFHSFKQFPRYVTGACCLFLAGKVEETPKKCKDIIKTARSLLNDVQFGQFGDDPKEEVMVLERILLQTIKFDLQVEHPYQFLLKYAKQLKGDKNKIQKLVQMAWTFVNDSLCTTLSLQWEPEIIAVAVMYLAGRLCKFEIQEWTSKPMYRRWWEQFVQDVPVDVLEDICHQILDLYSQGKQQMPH
T1 sequence (Q16531 whole entry): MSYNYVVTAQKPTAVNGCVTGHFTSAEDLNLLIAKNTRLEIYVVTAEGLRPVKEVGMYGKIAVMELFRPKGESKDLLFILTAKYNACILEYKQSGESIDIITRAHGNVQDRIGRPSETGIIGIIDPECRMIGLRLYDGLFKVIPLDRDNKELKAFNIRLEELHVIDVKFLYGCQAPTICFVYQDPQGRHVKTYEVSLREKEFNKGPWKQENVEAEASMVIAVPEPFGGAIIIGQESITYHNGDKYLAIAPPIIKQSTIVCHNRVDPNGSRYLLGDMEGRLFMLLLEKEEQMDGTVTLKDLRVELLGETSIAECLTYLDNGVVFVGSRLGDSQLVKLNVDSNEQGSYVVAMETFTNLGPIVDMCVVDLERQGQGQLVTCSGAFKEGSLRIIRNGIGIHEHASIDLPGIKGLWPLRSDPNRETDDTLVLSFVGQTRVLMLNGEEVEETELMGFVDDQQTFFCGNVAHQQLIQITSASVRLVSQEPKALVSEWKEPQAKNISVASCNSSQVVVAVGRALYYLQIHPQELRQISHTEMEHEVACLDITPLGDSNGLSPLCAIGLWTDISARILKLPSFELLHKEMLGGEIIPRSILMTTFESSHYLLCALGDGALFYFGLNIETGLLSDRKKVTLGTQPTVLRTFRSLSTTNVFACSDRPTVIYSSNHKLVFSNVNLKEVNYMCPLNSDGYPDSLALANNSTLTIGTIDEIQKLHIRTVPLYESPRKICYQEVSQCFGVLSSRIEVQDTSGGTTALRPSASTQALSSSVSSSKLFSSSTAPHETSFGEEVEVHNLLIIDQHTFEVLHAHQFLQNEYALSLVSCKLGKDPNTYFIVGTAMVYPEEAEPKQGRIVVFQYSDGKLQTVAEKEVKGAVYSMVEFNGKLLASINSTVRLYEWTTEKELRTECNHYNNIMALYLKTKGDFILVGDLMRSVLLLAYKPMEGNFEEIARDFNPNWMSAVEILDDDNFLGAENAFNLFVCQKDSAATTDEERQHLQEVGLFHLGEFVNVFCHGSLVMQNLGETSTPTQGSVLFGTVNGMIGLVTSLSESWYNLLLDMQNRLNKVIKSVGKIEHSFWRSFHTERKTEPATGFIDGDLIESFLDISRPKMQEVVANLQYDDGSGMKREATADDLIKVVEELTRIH

TR-FRET signal (CDK12–cyclin K and DDB1; [2]) | TR-FRET signal (CDK12–cyclin K and DDB1; [3]) | TR-FRET signal (CDK12–cyclin K and DDB1; [4]) | TR-FRET signal (CDK12–cyclin K and DDB1; [5]) | TR-FRET signal (CDK12–cyclin K and DDB1; [6]) | TR-FRET signal (CDK12–cyclin K and DDB1; [7]) | TR-FRET signal (CDK12–cyclin K and DDB1; [8]) | TR-FRET signal (CDK12–cyclin K and DDB1; [9]) | TR-FRET signal (CDK12–cyclin K and DDB1; [10]) | TR-FRET signal (CDK12–cyclin K and DDB1; [11]) | TR-FRET signal (CDK12–cyclin K and DDB1; [12]) | TR-FRET signal (CDK12–cyclin K and DDB1; [14]) | TR-FRET signal (CDK12–cyclin K and DDB1; [15]) | TR-FRET signal (CDK12–cyclin K and DDB1; [16]) | TR-FRET signal (CDK12–cyclin K and DDB1; [17]) | TR-FRET signal (CDK12–cyclin K and DDB1; [18]) | TR-FRET signal (CDK12–cyclin K and DDB1; [19]) | TR-FRET signal (CDK12–cyclin K and DDB1; [20]) | TR-FRET signal (CDK12–cyclin K and DDB1; [21]) | TR-FRET signal (CDK12–cyclin K and DDB1; [22]) | SMILES | also measured
 |  |  |  |  |  |  |  |  |  |  |  |  |  |  |  |  |  |  |  | C[C@H](C(=O)Nc1nc2ccccc2[nH]1)N1Cc2ccccc2C1=O [compound 919278] | Kd (CDK12): 5600 nM
0.1115 | 0.172 | 0.3284 | 0.4288 | 0.4992 | 0.5275 | 0.5247 | 0.5329 | 0.5439 | 0.5387 | 0.5235 | 0.2245 | 0.505 | 0.4237 | 0.5318 | 0.9093 | 1.797 | 2.967 | 3.159 | 3.183 | Cc1cc2nc(CNc3nc(N4CCN(C)CC4)nc4c(Br)cnn34)[nH]c2cc1C [DS73, reference compound] | Kd (CDK12–cyclin K and DDB1; [1]): 0.2 ± 0.3 nM; TR-FRET Kd* (CDK12–cyclin K and DDB1; [1]): subnanomolar range; Kd (CDK12–cyclin K and DDB1; [13]): 2 ± 1 nM; TR-FRET signal (CDK12–cyclin K and DDB1; [23]): 3.081; TR-FRET signal (CDK12–cyclin K and DDB1; [24]): 3.197
0.1037 | 0.135 | 0.1982 | 0.284 | 0.3713 | 0.4536 | 0.4778 | 0.4982 | 0.5242 | 0.5359 | 0.5508 | 0.2224 | 0.2548 | 0.3253 | 0.4723 | 0.7533 | 1.3518 | 2.31 | 2.851 | 2.999 | CCC(CO)Nc1nc(NCc2ccc(-c3ccccn3)cc2)c2ncn(C(C)C)c2n1 (stereo not shown) [CR8, reference compound] | TR-FRET signal (CDK12–cyclin K and DDB1; [23]): 3.086; TR-FRET signal (CDK12–cyclin K and DDB1; [24]): 3.013

SMILES | TR-FRET signal (CDK12–cyclin K and DDB1; [2]) | TR-FRET signal (CDK12–cyclin K and DDB1; [3]) | TR-FRET signal (CDK12–cyclin K and DDB1; [4]) | TR-FRET signal (CDK12–cyclin K and DDB1; [5]) | TR-FRET signal (CDK12–cyclin K and DDB1; [6]) | TR-FRET signal (CDK12–cyclin K and DDB1; [7]) | TR-FRET signal (CDK12–cyclin K and DDB1; [8]) | TR-FRET signal (CDK12–cyclin K and DDB1; [9]) | TR-FRET signal (CDK12–cyclin K and DDB1; [10]) | TR-FRET signal (CDK12–cyclin K and DDB1; [11]) | TR-FRET signal (CDK12–cyclin K and DDB1; [12]) | TR-FRET signal (CDK12–cyclin K and DDB1; [14]) | TR-FRET signal (CDK12–cyclin K and DDB1; [15]) | TR-FRET signal (CDK12–cyclin K and DDB1; [16]) | TR-FRET signal (CDK12–cyclin K and DDB1; [17]) | TR-FRET signal (CDK12–cyclin K and DDB1; [18]) | TR-FRET signal (CDK12–cyclin K and DDB1; [19]) | TR-FRET signal (CDK12–cyclin K and DDB1; [20]) | TR-FRET signal (CDK12–cyclin K and DDB1; [21]) | TR-FRET signal (CDK12–cyclin K and DDB1; [22]) | also measured
CC[C@H](CO)Nc1nc(NCc2nc3cc(Cl)c(Cl)cc3[nH]2)c2ncn(C(C)C)c2n1 [DS17] | 0.1296 | 0.2552 | 0.4087 | 0.5094 | 0.5468 | 0.5623 | 0.5693 | 0.582 | 0.5785 | 0.5613 | 0.5626 | 0.2322 | 0.3077 | 0.4714 | 0.8383 | 1.774 | 3.053 | 3.258 | 3.326 | 3.353 | Kd (CDK12–cyclin K and DDB1; [1]): < 1 nM; TR-FRET Kd* (CDK12–cyclin K and DDB1; [1]): subnanomolar range; Kd (CDK12–cyclin K and DDB1; [13]): < 1 nM; TR-FRET signal (CDK12–cyclin K and DDB1; [23]): 3.25; TR-FRET signal (CDK12–cyclin K and DDB1; [24]): 3.218
